The values that follow come from patent publication EP0647136B1, “USE OF CONDENSED BIS-(3,4-DIHYDRO-PYRIDINYL)METHANE FOR TREATING CROHN'S DISEASE, COLITIS ULCEROSA, CHRONIC INFLAMATORY PROCESSES AND AS AN ANTIPROLIFERATIVE” (BOEHRINGER INGELHEIM INTERNATIONAL GmbH, priority 1992, dated 1994).

This test deals with RBL-2H3-Zellen. Briefly: Antigen-induced (DNP-BSA) activation of sensitised RBL-2H3 cells, fluorometric cytoplasmic Ca2+ measurement. The following applies: 10 µM. Format: cell-based, rat. An excerpt: Verwendet werden einzelne an Glasplättchen adhärente RBL-2H3-Zellen (eine den Mastzellen verwandte Tumorzellinie).
Die Kultivierung und Anhaftung der RBL-2H3-Zellen erfolgt in der HIDE und BEAVEN (1991) beschriebenen Methode. Zur Sensibilisierung der adhäsiven RBL-2H3-Zellen werden die Zellen 2 Stunden bei Raumtemperatur mit einer 1:2000 verdünnten käuflichen Gammaglobulin E-Lösung gegen einen Dinitrophenol-Rinderserumalbumin-Komplex (DNP-BSA-Antigen) inkubiert. Anschließend werden die Zellen gewaschen. Durch Zusatz von 0,1 ml DNP-BSA-Lösung (10 µg/ml) erfolgt eine massive immunologische Zellaktivierung, die durch einen cytoplasmatischen Ca^2+-overload vermittelt wird. Die fluorometrische Calciummessung im Cytoplasma einzelner adhärenter RBL-2H3-Zellen erfolgt in Analogie zu der von KUDO und OGURA (1986) für neuronale Zellen beschriebenen Methode, die auch weiter oben in dieser Beschreibung erläutert wird.

As to `O=C(O)c1cc(=O)c2c(OCC(O)COc3cccc4oc(C(=O)O)cc(=O)c34)cccc2o1` [Chromoglycat], the “Hemmung der antigen-induzierten Zellaktivierung” value was “ca. 50%”.
